Experimental data from US12240844B2 (Voronoi, Inc., priority 2019, dated 2025).

What was measured:
MDA-MB-231 cell line = assay: MDA-MB-231 cancer cell proliferation inhibition (Cell Titer-Glo); format: cell-based; conditions: Homo sapiens, MDA-MB-231 triple-negative breast cancer cell line, 72 hours
In short: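 GI50 comes from CellTiter-Glo luminescence, read 10 min after reagent addition at RT, following 72 h compound treatment. Eleven concentrations were used (⅓ steps, highest 10 μM final) on 2000 cells/well. MDA-MB-231 and MDA-MB-468 were grown in DMEM, SHP-77 in RPMI.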

TTK = biological target: T1, TTK (Homo sapiens, UniProt P33981); assay: TTK enzyme inhibition, ADP-Glo kinase assay; format: biochemical; design: purchased Signalchem T20-10G; conditions: ATP 5 μM
T1 sequence (P33981 1-857): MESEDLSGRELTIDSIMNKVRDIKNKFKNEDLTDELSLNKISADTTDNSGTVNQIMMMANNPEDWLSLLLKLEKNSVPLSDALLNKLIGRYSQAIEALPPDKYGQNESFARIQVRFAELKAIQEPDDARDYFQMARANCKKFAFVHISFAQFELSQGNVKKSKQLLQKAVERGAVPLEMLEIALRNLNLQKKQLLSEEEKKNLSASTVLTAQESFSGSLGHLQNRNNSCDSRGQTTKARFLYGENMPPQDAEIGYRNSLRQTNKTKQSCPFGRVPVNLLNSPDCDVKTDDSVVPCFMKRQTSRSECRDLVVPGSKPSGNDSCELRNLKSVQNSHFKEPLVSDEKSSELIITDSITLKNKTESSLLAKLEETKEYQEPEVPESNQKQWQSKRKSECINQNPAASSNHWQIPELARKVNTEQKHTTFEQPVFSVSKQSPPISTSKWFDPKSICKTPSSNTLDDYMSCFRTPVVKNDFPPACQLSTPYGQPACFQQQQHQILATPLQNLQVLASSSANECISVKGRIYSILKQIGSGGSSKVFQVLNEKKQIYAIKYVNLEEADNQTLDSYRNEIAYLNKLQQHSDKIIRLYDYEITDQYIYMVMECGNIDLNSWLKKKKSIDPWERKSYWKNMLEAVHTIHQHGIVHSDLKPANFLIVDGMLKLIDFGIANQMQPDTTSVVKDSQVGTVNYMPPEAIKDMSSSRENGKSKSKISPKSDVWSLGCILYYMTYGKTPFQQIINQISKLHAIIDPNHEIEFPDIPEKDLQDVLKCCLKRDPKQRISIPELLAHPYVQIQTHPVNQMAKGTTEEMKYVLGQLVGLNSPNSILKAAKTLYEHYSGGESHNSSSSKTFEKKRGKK
Description: In order to evaluate the inhibitory activity of the compounds according to the present invention on LRRK2, LRRK2 (G2019S), DYRK1, CLK1 and TTK kinases, the following experiment was performed.
Example compounds were reacted with the purified human TTK (Signalchem #T20-10G) enzyme to evaluate the enzyme inhibitory ability as follows. The reaction buffer was used as the composition of 40 mM Tris-HCl pH7.4, 20 mM MgCl2, 0.1 mg/ml BSA (5× kinase buffer, Signalchem #K03-09) and 50 μM DTT (Signalchem #D86-09B), and the reaction of all test materials was performed on the reaction buffer. The compound was diluted with 10 mM DMSO stock in […] by a serial dilution method, and the enzyme activity was measured at the final compound concentrations of 1, 0.333333, 0.111111, 0.037037, 0.012346, 0.004115, 0.001372, 0.000457, 0.000152, 0.000051 and 0.000017 μM. In the test, the human TTK (7.5 ng) enzyme was reacted with the purified ATP (5 μM, Promega #V6930) and an MBP enzyme substrate (0.2 μg, Signalchem M42-51N) at 25° C. for 4 hours, and then the enzyme activity was identified using the in vitro ADP-Glo™ kinase assay (Promega #V6930). The enzyme activity reaction liquid, an ADP-Glo reaction liquid and an enzyme potency detection solution were reacted in a ratio of 2:2:1, and the degree of inhibition of enzyme activity was measured by luminescence. The degree of inhibition of enzyme activity according to the treatment concentrations of the respective compounds was calculated based on the luminescence degree of the enzyme activity of a solvent control group that was not treated with the compound, where the concentration of each compound to inhibit enzyme activity inhibition by 50% was determined as an IC50 (nM) value and obtained using Prism (Version 8.2, GraphPad) software.
In the table below, the following designations were used for the evaluation of enzyme inhibitory ability.

LRRK2 (G2019S) = LRRK2 (G2019S) (Homo sapiens, UniProt Q5S007, G2019S); assay: LRRK2 G2019S enzyme inhibition, ADP-Glo kinase assay; format: biochemical; design: purchased SignalChem L10-12GG
In short: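 Purified human LRRK2 G2019S (16 ng) with 25 μM ATP and 0.2 μg substrate, 2 h at 25° C in 40 mM Tris-HCl pH 7.4, 20 mM MgCl2, 0.5 mg/ml BSA, 50 μM DTT; compound at 12 final concentrations from 50 μM downward. ADP-Glo luminescence versus solvent control gave IC50 (nM).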

Chain of LRRK2 (G2019S) (Q5S007 970-2527 G2019S limits assumed): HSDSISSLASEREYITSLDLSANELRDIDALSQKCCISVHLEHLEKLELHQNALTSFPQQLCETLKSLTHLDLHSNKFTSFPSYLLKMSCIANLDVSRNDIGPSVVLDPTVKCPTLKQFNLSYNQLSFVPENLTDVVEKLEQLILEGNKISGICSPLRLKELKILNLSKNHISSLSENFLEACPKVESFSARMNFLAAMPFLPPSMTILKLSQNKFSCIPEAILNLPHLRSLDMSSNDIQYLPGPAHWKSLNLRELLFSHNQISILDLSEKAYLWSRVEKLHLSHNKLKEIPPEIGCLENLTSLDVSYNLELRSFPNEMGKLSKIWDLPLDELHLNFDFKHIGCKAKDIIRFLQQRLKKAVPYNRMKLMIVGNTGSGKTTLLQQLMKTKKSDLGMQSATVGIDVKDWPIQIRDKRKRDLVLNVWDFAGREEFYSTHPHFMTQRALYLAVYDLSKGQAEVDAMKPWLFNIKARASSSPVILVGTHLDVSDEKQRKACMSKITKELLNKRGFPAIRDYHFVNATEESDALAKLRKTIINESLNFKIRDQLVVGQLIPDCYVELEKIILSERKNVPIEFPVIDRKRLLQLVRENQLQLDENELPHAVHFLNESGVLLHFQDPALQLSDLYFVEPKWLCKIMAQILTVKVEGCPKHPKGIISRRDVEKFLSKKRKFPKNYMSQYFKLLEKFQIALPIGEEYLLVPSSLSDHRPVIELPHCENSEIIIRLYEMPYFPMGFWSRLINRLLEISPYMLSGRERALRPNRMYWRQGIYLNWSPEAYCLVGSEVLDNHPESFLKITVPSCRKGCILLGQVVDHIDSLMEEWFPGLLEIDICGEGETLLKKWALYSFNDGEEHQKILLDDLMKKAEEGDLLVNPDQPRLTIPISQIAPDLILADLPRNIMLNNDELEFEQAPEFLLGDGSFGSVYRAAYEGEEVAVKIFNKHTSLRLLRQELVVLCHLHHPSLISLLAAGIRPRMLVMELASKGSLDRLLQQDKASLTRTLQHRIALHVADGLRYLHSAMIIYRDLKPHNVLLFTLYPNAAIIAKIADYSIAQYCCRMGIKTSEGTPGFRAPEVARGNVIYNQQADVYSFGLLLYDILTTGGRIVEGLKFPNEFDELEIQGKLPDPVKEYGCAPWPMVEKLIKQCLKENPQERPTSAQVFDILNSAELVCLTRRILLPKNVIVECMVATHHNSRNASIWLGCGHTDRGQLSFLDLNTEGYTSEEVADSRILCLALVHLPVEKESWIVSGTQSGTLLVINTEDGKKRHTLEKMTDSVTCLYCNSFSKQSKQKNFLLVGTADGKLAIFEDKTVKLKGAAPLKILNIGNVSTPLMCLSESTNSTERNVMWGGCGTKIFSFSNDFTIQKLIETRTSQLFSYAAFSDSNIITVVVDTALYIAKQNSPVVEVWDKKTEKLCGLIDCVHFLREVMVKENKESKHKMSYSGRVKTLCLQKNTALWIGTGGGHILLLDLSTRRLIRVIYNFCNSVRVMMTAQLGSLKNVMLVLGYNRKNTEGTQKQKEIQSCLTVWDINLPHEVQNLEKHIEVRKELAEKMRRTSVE

Compound | GI50 (MDA-MB-231 cell line) | IC50 (TTK) | IC50 (LRRK2 (G2019S))
O=C(c1ccc(Nc2cc(NC3CC3)c3c(C(F)(F)F)c[nH]c3n2)c2c1CCO2)N1CCC(N2CCOCC2)CC1 [Example 92, (7-((4-(cyclopropylamino)-3-(trifluoromethyl)-1H-pyrrolo[2,3-b]pyridin-6-yl)amino)-2,3-dihydrobenzofuran-4-yl)(4-morpholinopiperidin-1-yl)methanone] | 301 to 1000 nM | < 100 nM | < 100 nM
CNc1cc(Nc2ccc(P3(=O)CCN(C4CC4)CC3)cc2OC)nc2[nH]cc(C#N)c12 [Example 146, 6-((4-(1-cyclopropyl-4-oxido-1,4-azaphosphinan-4-yl)-2-methoxyphenyl)amino)-4-(methylamino)-1H-pyrrolo[2,3-b]pyridine-3-carbonitrile] | 301 to 1000 nM | < 100 nM | –
O=C(c1ccc(Nc2cc(C3CC3)c3c(C(F)(F)F)c[nH]c3n2)c2c1CCO2)N1CC[C@@H](N2CCOCC2)C1 [Example 238, (R)-(7-((4-cyclopropyl-3-(trifluoromethyl)-1H-pyrrolo[2,3-b]pyridin-6-yl)amino)-2,3-dihydrobenzofuran-4-yl)(3-morpholinopyrrolidin-1-yl)methanone] | 301 to 1000 nM | < 100 nM | –
CCNc1cc(Nc2ccc(C(=O)N3C[C@@H]4C[C@H]3CO4)c3c2OCCO3)nc2[nH]cc(C(F)(F)F)c12 [Example 44, ((1S,4S)-2-oxa-5-azabicyclo[2.2.1]heptan-5-yl)(8-((4-(ethylamino)-3-(trifluoromethyl)-1H-pyrrolo[2,3-b]pyridin-6-yl)amino)-2,3-dihydrobenzo[b] [1,4]dioxin-5-yl)methanone] | 301 to 1000 nM | < 100 nM | –
COCCNc1cc(Nc2ccc(P3(=O)CCN(C4CC4)CC3)cc2OC)nc2[nH]cc(C#N)c12 [Example 148, 6-((4-(1-cyclopropyl-4-oxido-1,4-azaphosphinan-4-yl)-2-methoxyphenyl)amino)-4-((2-methoxyethyl)amino)-1H-pyrrolo[2,3-b]pyridine-3-carbonitrile] | 301 to 1000 nM | < 100 nM | –
CCNc1cc(Nc2ccc(C(=O)N3CCC(N4CCOCC4)CC3)c3c2OCO3)nc2[nH]cc(C(F)(F)F)c12 [Example 37, (7-((4-(ethylamino)-3-(trifluoromethyl)-1H-pyrrolo[2,3-b]pyridin-6-yl)amino)benzo[d][1,3]dioxol-4-yl)(4-morpholinopiperidin-1-yl)methanone] | 301 to 1000 nM | – | < 100 nM
O=C(c1ccc(Nc2cc(C3CC3)c3c(C(F)(F)F)c[nH]c3n2)c2c1CCO2)N1CC[C@H](N2CCOCC2)C1 [Example 237, (S)-(7-((4-cyclopropyl-3-(trifluoromethyl)-1H-pyrrolo[2,3-b]pyridin-6-yl)amino)-2,3-dihydrobenzofuran-4-yl)(3-morpholinopyrrolidin-1-yl)methanone] | 301 to 1000 nM | 101 to 300 nM | –
CCNc1cc(Nc2ccc(C(=O)N3CCN(C4COC4)CC3)c3c2OCCO3)nc2[nH]cc(C(F)(F)F)c12 [Example 173, (8-((4-(ethylamino)-3-(trifluoromethyl)-1H-pyrrolo[2,3-b]pyridin-6-yl)amino)-2,3-dihydrobenzo[b] [1,4]dioxin-5-yl)(4-(oxetan-3-yl)piperazin-1-yl)methanone] | 301 to 1000 nM | < 100 nM | –
CCCNc1cc(Nc2ccc(C(=O)N3CCC(N4CCOCC4)CC3)c3c2OCCO3)nc2[nH]cc(C(F)(F)F)c12 [Example 162, (4-morpholinopiperidin-1-yl)(8-((4-(propylamino)-3-(trifluoromethyl)-1H-pyrrolo[2,3-b]pyridin-6-yl)amino)-2,3-dihydrobenzo[b] [1,4]dioxin-5-yl)methanone] | – | – | < 100 nM
O=C(c1ccc(Nc2cc(C3CC3)c3c(C(F)(F)F)c[nH]c3n2)c2c1OCO2)N1CCC(N2CCOCC2)CC1 [Example 49, (7-((4-cyclopropyl-3-(trifluoromethyl)-1H-pyrrolo[2,3-b]pyridin-6-yl)amino)benzo[d][1,3]dioxol-4-yl)(4-morpholinopiperidin-1-yl)methanone] | 301 to 1000 nM | < 100 nM | –

Further lines, results first:

GI50 (MDA-MB-231 cell line) | IC50 (TTK) | IC50 (LRRK2 (G2019S)) | Compound
301 to 1000 nM | < 100 nM | 101 to 300 nM | COCCNc1cc(Nc2ccc(P3(=O)CCN(C4CC4)CC3)cc2OC)nc2[nH]cc(C(F)(F)F)c12 [Example 207, 1-cyclopropyl-4-(3-methoxy-4-((4-((2-methoxyethyl)amino)-3-(trifluoromethyl)-1H-pyrrolo[2,3-b]pyridin-6-yl)amino)phenyl)-1,4-azaphosphinane 4-oxide]
301 to 1000 nM | – | < 100 nM | CCNc1cc(Nc2ccc(S(=O)(=O)N3CCC(N4CCOCC4)CC3)c3c2OCCO3)nc2[nH]cc(C(F)(F)F)c12 [Example 96, N^4-ethyl-N^6-(8-((4-morpholonopiperidin-1-yl)sulfonyl)-2,3-dihydrobenzo [b] [1,4]dioxin-5-yl)-3-(trifluoromethyl)-1H-pyrrolo[2,3-b]pyridine-4,6-diamine]
301 to 1000 nM | – | < 100 nM | COc1cc(S(=O)(=O)N2CCC(N3CCOCC3)CC2)ccc1Nc1cc(NCCS(C)(=O)=O)c2c(C(F)(F)F)c[nH]c2n1 [Example 194, N^6-(2-methoxy-4-((4-morpholinopiperidin-1-yl)sulfonyl)phenyl)-N^4-(2-(methylsulfonyl)ethyl)-3-(trifluoromethyl)-1H-pyrrolo[2,3-b]pyridine-4,6-diamine]
301 to 1000 nM | < 100 nM | – | CNc1cc(Nc2ccc(C(=O)N3CC[C@H](N4CCOCC4)C3)c3c2OCC3)nc2[nH]cc(C(F)(F)F)c12 [Example 217, (S)-(7-((4-(methylamino)-3-(trifluoromethyl)-1H-pyrrolo[2,3-b]pyridin-6-yl)amino)-2,3-dihydrobenzofuran-4-yl)(3-morpholinopyrrolidin-1-yl)methanone]
101 to 300 nM | – | < 100 nM | CNc1cc(Nc2ccc(S(=O)(=O)N3CCC(N4C[C@H]5C[C@@H]4CO5)CC3)cc2OC)nc2[nH]cc(C(F)(F)F)c12 [Example 243, N^6-(4-((4-((1R,4R)-2-oxa-5-azabicyclo[2.2.1]heptan-5-yl)piperidin-1-yl)sulfonyl)-2-methoxyphenyl)-N^4-methyl-3-(trifluoromethyl)-1H-pyrrolo[2,3-b]pyridine-4,6-diamine]
301 to 1000 nM | – | 101 to 300 nM | CCNc1cc(Nc2ccc(P3(=O)CCN(C4CCOCC4)CC3)cc2OC)nc2[nH]cc(C(F)(F)F)c12 [Example 94, 4-(4-((4-(ethylamino)-3-(trifluoromethyl)-1H-pyrrolo[2,3-b]pyridin-6-yl)amino)-3-methoxyphenyl)-1-(tetrahydro-2H-pyran-4-yl)-1,4-azaphosphinane 4-oxide]
– | – | < 100 nM | CNc1cc(Nc2ccc(C(=O)N3CCC(N4CCOCC4)CC3)c3c2OCCO3)nc2[nH]cc(C(F)(F)F)c12 [Example 160, (8-((4-(methylamino)-3-(trifluoromethyl)-1H-pyrrolo[2,3-b]pyridin-6-yl)amino)-2,3-dihydrobenzo [b] [1,4]dioxin-5-yl)(4-morpholinopiperidin-1-yl)methanone]
